From patent US20240139326A1, “METHACRYLAMIDES PROTEIN BINDERS AND USES THEREOF” (YEDA RESEARCH AND DEVELOPMENT CO. LTD., priority 2020, published 2024)
Read-outs that look alike come from different tables or passages of the source.

What was measured:
[1] = target: SARS-CoV-2 papain like protease (PL^pro) (Severe acute respiratory syndrome coronavirus 2 (2019-nCoV) (SARS-CoV-2), UniProt P0DTD1); experiment: Labeling of PLpro (LC/MS); format: binding; conditions: 2 μM protein, 16h, pH 8
BTK kinase domain [2] = target: T1, BTK kinase domain (Homo sapiens (Human), UniProt Q06187); experiment: Kinetic labeling experiments of Ibrutinib derivatives with BTK (intact protein LC/MS); conditions: for BTK Substitution/Addition: mechanism of BTK labeling; for labeling of BTK through the substitution mechanism: within 30 minutes
T1 sequence (Q06187 402-655): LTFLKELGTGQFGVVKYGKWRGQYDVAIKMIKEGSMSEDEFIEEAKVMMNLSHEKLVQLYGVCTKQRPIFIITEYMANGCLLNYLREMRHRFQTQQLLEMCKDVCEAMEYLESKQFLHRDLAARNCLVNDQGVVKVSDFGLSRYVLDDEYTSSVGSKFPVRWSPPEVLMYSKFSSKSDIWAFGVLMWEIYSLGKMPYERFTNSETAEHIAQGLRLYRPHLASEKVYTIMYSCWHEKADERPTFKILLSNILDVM
Description: (§2) The reaction mixtures, at room temperature for various times, were injected into the LC/MS. For data analysis, the raw spectra were deconvoluted using a 20000:40000 Da window and 1 Da resolution. The signal from masses 20000:30000 and 33000:40000 (which contained no peaks) was averaged and subtracted from the whole signal.

wild-type BTK = wild-type BTK (Homo sapiens (Human), UniProt Q06187); experiment: In vitro kinase activity assay for BTK (Nanosyn); format: biochemical
wild-type BTK, sequence (Q06187 whole entry, the tested form may be a part): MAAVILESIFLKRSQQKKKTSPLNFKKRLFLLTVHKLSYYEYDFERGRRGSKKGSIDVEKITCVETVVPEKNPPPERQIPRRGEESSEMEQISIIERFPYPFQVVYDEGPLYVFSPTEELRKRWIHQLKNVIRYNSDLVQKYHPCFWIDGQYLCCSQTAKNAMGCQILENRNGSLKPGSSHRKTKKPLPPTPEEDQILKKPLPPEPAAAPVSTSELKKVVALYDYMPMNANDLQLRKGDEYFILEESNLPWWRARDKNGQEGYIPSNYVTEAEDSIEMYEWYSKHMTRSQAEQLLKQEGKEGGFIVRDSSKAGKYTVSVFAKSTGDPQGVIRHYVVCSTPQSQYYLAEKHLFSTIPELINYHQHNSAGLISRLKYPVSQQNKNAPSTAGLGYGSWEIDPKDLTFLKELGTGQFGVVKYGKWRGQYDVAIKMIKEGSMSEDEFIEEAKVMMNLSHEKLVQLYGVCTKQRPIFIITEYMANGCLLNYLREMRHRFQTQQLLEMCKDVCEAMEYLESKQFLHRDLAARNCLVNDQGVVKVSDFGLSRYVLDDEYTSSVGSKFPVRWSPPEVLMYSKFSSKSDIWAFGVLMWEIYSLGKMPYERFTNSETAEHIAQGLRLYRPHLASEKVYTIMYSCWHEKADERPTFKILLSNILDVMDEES
Description: The reaction was initiated by 2-fold dilution into a solution containing 5 μM ATP and substrate.

BTK kinase domain [3] = target: T1, BTK kinase domain
Description: as §2

Mino cells = experiment: In-gel fluorescence proteomic reactivity of alkyne probes; format: cell-based; conditions: Mino cells treated 2 h, clicked with TAMRA-azide
Description: The samples were incubated at 25 degrees for 2 hours.
Mino cells were treated for two hours with either DMSO, IA-alkyne, or 2a-c. The cells were lysed, labeled the alkynes via copper-catalyzed “click chemistry” with TAMRA (Tetramethylrhodamine)-azide, and imaged the adducts via in-gel fluorescence (FIG. 8B). […] This may be the result of cellular esterases that hydrolyze the ester, leaving an unreactive substituted acrylamide^26. All of the acrylamides were markedly less reactive than IA-alkyne.

BTK kinase domain [4] = target: T1, BTK kinase domain; experiment: Labeling experiments of Ibrutinib derivatives with BTK (ligand release, LC/MS); format: binding; conditions: BTK 2 μM, 10 min, 25° C., pH 8
Description: Binding experiments were performed in Tris 20 mM pH 8.0, 50 mM NaCl at room temperature. […] The reaction mixtures, at room temperature for various times, were injected into the LC/MS. For data analysis, the raw spectra were deconvoluted using a 20000:40000 Da window and 1 Da resolution. The labeling percentage for a compound was determined as the labeling of a specific compound (alone or together with other compounds) divided by the overall detected protein species.
To assess irreversible labeling and validate the proposed ligand release mechanism, the probes/compounds (2 μM) were incubated with recombinant BTK (2 μM) and monitored the reaction via intact protein liquid chromatography/mass spectrometry (LC/MS).

BSA = BSA (Bos taurus (Bovine), UniProt P02769); experiment: Turn-on fluorescence selectivity control with BSA; format: binding; conditions: 10 μM BSA with 2 μM 3j
BSA, sequence (P02769 25-607 limits assumed): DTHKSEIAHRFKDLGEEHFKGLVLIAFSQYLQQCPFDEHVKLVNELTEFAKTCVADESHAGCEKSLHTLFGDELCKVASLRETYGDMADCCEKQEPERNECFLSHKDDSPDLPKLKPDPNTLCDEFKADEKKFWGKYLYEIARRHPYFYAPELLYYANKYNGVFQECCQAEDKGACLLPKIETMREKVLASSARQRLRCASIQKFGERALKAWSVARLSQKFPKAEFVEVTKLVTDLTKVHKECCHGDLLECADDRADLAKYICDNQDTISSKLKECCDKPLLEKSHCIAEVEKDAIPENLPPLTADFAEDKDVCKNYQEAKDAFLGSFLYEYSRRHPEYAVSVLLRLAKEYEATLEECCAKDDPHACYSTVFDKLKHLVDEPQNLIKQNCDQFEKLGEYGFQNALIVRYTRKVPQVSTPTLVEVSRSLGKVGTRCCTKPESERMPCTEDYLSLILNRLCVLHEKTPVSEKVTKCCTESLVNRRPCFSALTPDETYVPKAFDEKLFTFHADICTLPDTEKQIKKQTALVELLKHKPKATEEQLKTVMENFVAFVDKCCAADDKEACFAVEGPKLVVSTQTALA

BTK [5] = target: T2, BTK (Homo sapiens (Human), UniProt Q06187); experiment: Fluorescence intensity measurement of CoLDR turn-on probe with BTK; format: binding; conditions: 2 μM probe, 2 μM BTK
T2 sequence (Q06187 2-659 limits assumed): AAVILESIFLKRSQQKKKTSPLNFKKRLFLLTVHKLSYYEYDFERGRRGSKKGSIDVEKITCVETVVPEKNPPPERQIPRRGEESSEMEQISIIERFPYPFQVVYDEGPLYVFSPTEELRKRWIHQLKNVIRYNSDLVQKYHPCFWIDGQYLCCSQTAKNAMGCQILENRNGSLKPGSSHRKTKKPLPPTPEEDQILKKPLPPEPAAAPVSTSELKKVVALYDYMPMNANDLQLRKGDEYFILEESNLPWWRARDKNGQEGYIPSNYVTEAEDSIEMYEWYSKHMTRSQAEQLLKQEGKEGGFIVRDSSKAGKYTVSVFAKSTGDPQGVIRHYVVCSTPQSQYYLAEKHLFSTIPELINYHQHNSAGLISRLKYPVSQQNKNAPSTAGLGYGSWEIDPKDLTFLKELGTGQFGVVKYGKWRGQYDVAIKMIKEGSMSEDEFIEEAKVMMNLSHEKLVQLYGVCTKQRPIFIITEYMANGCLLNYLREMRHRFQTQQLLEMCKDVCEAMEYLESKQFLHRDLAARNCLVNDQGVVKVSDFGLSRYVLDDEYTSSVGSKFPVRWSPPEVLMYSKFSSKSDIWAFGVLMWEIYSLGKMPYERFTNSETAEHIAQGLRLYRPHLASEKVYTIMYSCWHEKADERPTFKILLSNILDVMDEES
Description: (§1) Each condition was in triplicates in 20 mM Tris pH 8 50 mM NaCl for BTK and K-RAS^G12c, in 50 mM Tris pH 8.0, 100 mM NaCl for EGFR. fluorescent measurements were taken every 2 minutes for 2 hours for BTK and EGFR and every 10 minutes for 15 hours for K-RAS^G12c. […] K-Ras^G12C was expressed and purified as previously described^66, EGFR kinase domain was a generous gift from Prof. Michael Eck.
The fact that a specific leaving group is released as a function of selective binding of a target protein can be used to functionalize irreversible inhibitors, for example as turn-on fluorescent probes. To assess the applicability and generality of this approach three therapeutic targets were chosen for which acrylamide inhibitors are available: BTK, EGFR, and K-RAS^G12C as model systems. […] The rate of the reaction was […] by using 20:1 equivalents of protein:probe (FIG. 12). […] The release can also be inhibited by pre-incubation of BTK with Iodoacetamide alkyne (IAA; FIG. 13B).

BTK [6] = target: T2, BTK; experiment: Turn-on chemiluminescence of probe 3k with BTK; format: binding
Description: Plate reader measurements were performed on Tecan Spark Control 10M fluorescent measurements using black 384 well plates with clear bottom.
Recently, adamantylidene-dioxetane based chemiluminescent turn-on probes for the sensing and imaging of enzymes, reactive oxygen species, and other analytes were reported^28-32 These probes, upon activation by analytes, release a phenolate-dioxetane intermediate which subsequently decomposes with the emission of a photon in the visible spectrum (FIG. 3). […] The chemiluminescence light emission profile of probe 3k (FIG. 15A, Example 1) upon activation with BTK (2 μM) was measured in the absence and presence of BTK (FIG. 15B). The kinetic profile in the presence of BTK was typical of a chemiluminescent probe with an initial signal was increased to a maximum within 20 minutes, followed by a slow decrease.

BTK [7] = target: T2, BTK; experiment: Fluorescence intensity measurements of labeling probes with BTK; conditions: 4 μM competitor
EGFR [8] = target: T3, EGFR (Homo sapiens (Human), UniProt P00533); experiment: Fluorescence intensity measurement of CoLDR turn-on probe with EGFR; format: binding; conditions: 2 μM each
T3 sequence (P00533 25-1210 limits assumed): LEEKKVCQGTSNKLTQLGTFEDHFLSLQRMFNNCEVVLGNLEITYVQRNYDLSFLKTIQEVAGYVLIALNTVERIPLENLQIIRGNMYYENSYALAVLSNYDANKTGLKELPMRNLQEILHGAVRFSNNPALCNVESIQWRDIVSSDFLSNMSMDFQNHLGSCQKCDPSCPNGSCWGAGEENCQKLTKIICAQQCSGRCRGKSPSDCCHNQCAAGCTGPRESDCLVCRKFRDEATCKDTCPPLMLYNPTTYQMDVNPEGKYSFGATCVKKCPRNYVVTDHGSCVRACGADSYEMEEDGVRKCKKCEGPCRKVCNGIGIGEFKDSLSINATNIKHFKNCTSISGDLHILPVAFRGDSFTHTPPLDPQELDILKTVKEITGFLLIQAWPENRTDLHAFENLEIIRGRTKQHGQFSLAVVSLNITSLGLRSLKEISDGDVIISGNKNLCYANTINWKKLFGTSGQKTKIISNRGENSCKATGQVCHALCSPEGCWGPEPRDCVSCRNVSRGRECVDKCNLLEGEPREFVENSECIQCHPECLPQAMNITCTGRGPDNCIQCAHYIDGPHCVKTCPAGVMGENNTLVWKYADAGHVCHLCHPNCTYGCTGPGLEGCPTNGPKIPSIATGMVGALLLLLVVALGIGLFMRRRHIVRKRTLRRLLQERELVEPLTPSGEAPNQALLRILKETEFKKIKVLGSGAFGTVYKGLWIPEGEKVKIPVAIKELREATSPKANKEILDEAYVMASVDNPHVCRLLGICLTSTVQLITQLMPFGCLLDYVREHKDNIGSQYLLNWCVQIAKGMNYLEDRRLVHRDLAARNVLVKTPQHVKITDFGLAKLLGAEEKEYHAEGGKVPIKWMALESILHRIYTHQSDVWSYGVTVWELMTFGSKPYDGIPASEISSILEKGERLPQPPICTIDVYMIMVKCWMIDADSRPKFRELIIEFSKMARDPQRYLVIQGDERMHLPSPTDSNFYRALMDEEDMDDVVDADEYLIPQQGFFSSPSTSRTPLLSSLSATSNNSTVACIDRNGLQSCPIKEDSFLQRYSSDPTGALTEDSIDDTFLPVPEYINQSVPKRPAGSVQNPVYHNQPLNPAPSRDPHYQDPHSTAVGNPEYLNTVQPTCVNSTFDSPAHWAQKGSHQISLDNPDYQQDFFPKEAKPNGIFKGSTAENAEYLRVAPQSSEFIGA
Description: as §1
Similarly, 4b (FIG. 11B, Example 1; afatinib derivative functionalized with coumarin) and 5a (FIG. 11C, Example 1; AMG-510 derivative functionalized with coumarin) were treated with EGFR and K-RAS^G12c respectively and measured the released coumarin fluorescence (FIG. 11E, 11F).

EGFR [9] = target: T3, EGFR; experiment: EGFR kinase activity assay; format: biochemical; conditions: read-out: IC50 against EGFR
physchem = conditions: 5 mM GSH in potassium phosphate buffer, pH 8

With C=C(COC(=O)c1cc(OC)c(OC)c(OC)c1)C(=O)OCC [Compound 7t] the “single labeling of PL^pro” value [1] was 100%.
In the case of C=C(CN(C)c1ccccc1)C(=O)N1CCC[C@@H](n2nc(-c3ccc(Oc4ccccc4)cc3)c3c(N)ncnc32)C1 [Compound 3d, (R)-1-(3-(4-amino-3-(4-phenoxyphenyl)-1H-pyrazolo[3,4-d]pyrimidin-1-yl)piperidin-1-yl)-2-((methyl(phenyl)amino)methyl)prop-2-en-1-one], the “BHK t1/2” value (BTK kinase domain [2]; BTK labeling, 2 μM compound and 2 μM BTK at room temperature) is reported as 47 min, the “BTK Substitution/Addition” value (BTK kinase domain [2]) is reported as “Substitution” and the “labeling of BTK through the substitution mechanism” value (BTK kinase domain [2]) is reported as 100%. For the same compound, the IC50 (wild-type BTK; 0.6 nM BTK, 5 μM ATP) was 0.0056 µM.
In the case of C=C(CN1CCCCC1)C(=O)N1CCC[C@@H](n2nc(-c3ccc(Oc4ccccc4)cc3)c3c(N)ncnc32)C1 [Compound 3c, (R)-1-(3-(4-amino-3-(4-phenoxyphenyl)-1H-pyrazolo[3,4-d]pyrimidin-1-yl)piperidin-1-yl)-2-(piperidin-1-ylmethyl)prop-2-en-1-one], the “BTK Substitution/Addition” value (BTK kinase domain [2]) is reported as “exclusively through addition”, the IC50 (wild-type BTK; 0.6 nM BTK, 5 μM ATP) is reported as 0.0001 µM and the IC50 (wild-type BTK; unit μM) is reported as < 100 µM.
In the case of C=C(CNCc1ccccc1)C(=O)N1CCC[C@@H](n2nc(-c3ccc(Oc4ccccc4)cc3)c3c(N)ncnc32)C1 [Compound 3e, (R)-1-(3-(4-amino-3-(4-phenoxyphenyl)-1H-pyrazolo[3,4-d]pyrimidin-1-yl)piperidin-1-yl)-2-((benzylamino)methyl)prop-2-en-1-one], the “BTK Substitution/Addition” value (BTK kinase domain [2]) is reported as “exclusively through addition”, the “BTK labeling t1/2 faster than Ibrutinib” value (BTK kinase domain [2]; relative to Ibrutinib) is reported as 50% and the “BHK t1/2” value (BTK kinase domain [3]; recombinant enzyme) is reported as <5 min. For the same compound, the IC50 (wild-type BTK; 0.6 nM BTK, 5 μM ATP) was 0.0001 µM and the IC50 (wild-type BTK; unit μM) was < 100 µM.
For C#CCCNC(=O)C(=C)COc1ccc2ccc(=O)oc2c1 [Compound 2a, N-(but-3-yn-1-yl)-2-(((2-oxo-2H-chromen-7-yl)oxy)methyl)acrylamide], the “proteomic reactivity (in-gel fluorescence)” value (Mino cells) was “slightly higher reactivity than 2b”.
In the case of C#CCCNC(=O)C(=C)CN1CCC(CNc2ncnc(N)c2-c2ccc(Oc3ccccc3)cc2)CC1 [Compound 7g], the “single labeling of BTK” value (BTK kinase domain [4]) is reported as 100%.
For C=C(COc1ccc2ccc(=O)oc2c1)C(=O)N1CCC[C@@H](n2nc(-c3ccc(Oc4ccccc4)cc3)c3c(N)ncnc32)C1 [Compound 3j, (R)-7-((2-(3-(4-amino-3-(4-phenoxyphenyl)-1H-pyrazolo[3,4-d]pyrimidin-1-yl)piperidine-1-carbonyl)allyl)oxy)-2H-chromen-2-one], the “labeling of BTK through the substitution mechanism” value (BTK kinase domain [2]) was 100%, the “fluorescence on incubation with BSA” value (BSA) was “did not result in increased fluorescence” and the “increase of fluorescence intensity at 435 nm upon addition of BTK” value (BTK [5]) was 30 fold. For the same compound, the “time to fluorescence saturation” value (BTK [5]) was ≤ 10 min.
For C=C(C)C(=O)N1CCC[C@@H](n2nc(-c3ccc(Oc4ccccc4)cc3)c3c(N)ncnc32)C1 [Compound 3a, (R)-1-(3-(4-amino-3-(4-phenoxyphenyl)-1H-pyrazolo[3,4-d]pyrimidin-1-yl)piperidin-1-yl)-2-methylprop-2-en-1-one], the “BHK t1/2” value (BTK kinase domain [3]) was >420 min.
For Nc1ncnc2c1c(-c1ccc(Oc3ccccc3)cc1)nn2[C@@H]1CCCNC1 [Ibr-H, reference compound], the “3k luminescence after pre-incubation of BTK with competitor” value (BTK [6]; 2 μM, 0.5 h pre-incubation) was “significant decrease in the luminescence detected” and the “7m turn-on fluorescence after pre-incubation of BTK with competitor” value (BTK [7]) was “eliminated the fluorescence”.
In the case of C=C(COC(C)=O)C(=O)N1CCC[C@@H](n2nc(-c3ccc(Oc4ccccc4)cc3)c3c(N)ncnc32)C1 [Compound 3g, (R)-2-(3-(4-amino-3-(4-phenoxyphenyl)-1H-pyrazolo[3,4-d]pyrimidin-1-yl)piperidine-1-carbonyl)allyl acetate], the “BTK Substitution/Addition” value (BTK kinase domain [2]) is reported as “Substitution”, the “labeling of BTK through the substitution mechanism” value (BTK kinase domain [2]) is reported as 100% and the IC50 (wild-type BTK; 0.6 nM BTK, 5 μM ATP) is reported as 0.0001 µM. For the same compound, the IC50 (wild-type BTK; unit μM) was < 100 µM.
With C=C(COc1c(Cl)cc(C2(OC)OOC23[C@H]2C[C@@H]4C[C@@H](C[C@H]3C4)C2)cc1/C=C/C(=O)OC)C(=O)N1CCC[C@@H](n2nc(-c3ccc(Oc4ccccc4)cc3)c3c(N)ncnc32)C1 (stereo partly drawn) [Compound 3k, Methyl (E)-3-(2-((2-((R)-3-(4-amino-3-(4-phenoxyphenyl)-1H-pyrazolo[3,4-d]pyrimidin-1-yl)piperidine-1-carbonyl)allyl)oxy)-3-chloro-5-((1r,3r,5R,7R)-4′-methoxyspiro[adamantane-2,3′-[1,2]dioxetan]-4′-yl)phenyl)acrylate] the “time to maximum chemiluminescence signal” value (BTK [6]; BTK 2 μM) was ≤ 20 min.
For C#CCCNC(=O)C(=C)COC(=O)c1ccccc1 [Compound 2c, 2-(but-3-yn-1-ylcarbamoyl)allyl benzoate], the “proteomic reactivity (in-gel fluorescence)” value (Mino cells) was “completely inactive”.
With C=C(COc1ccc2ccc(=O)oc2c1)C(=O)Nc1cc2c(Nc3ccc(F)c(Cl)c3)ncnc2cc1OC [Compound 4b, N-(4-((3-chloro-4-fluorophenyl)amino)-7-methoxyquinazolin-6-yl)-2-(((2-oxo-2H-chromen-7-yl)oxy)methyl)acrylamide] the “released coumarin fluorescence with EGFR” value (EGFR [8]) was “significant increase in fluorescence intensity” and the IC50 (EGFR [9]) was 3.3 nM.
In the case of C=C(COC(=O)Oc1ccc([N+](=O)[O-])cc1)C(=O)NCc1ccccc1 [Compound 1j, 2-(benzylcarbamoyl)allyl (4-nitrophenyl) carbonate], the half-life at 100 μM (physchem) is reported as 54 min.
